Measured values reported in patent publication US6022307A, “Substituted dibenzothiophenes having antiangiogenic activity” (American Cyanamid Company, priority 1999, dated 2000).
Counter-ions that a name gives are not always drawn. Like-named read-outs stand apart in the source and are kept apart here.

Experiments:
[1] = tested on: KDR
Description: (§1) Inhibition of Binding of VEGF 165 to KDR & Flt-1 Receptors as Measured by SPA Assay
(§2) Preparation of conditioned media containing the KDR-Fc soluble VEGF receptor.:
(§3) Human 293KDR2 cells, which secrete a soluble KDR-Fc fusion protein, were grown in Dulbecco's Modified Eagle Medium supplemented with 10% fetal calf serum, 2 mM glutamine, 10 units/ml penicillin G sulfate, 10 μg/ml streptomycin sulfate and 175 μg/ml geneticin (G418) sulfate. Cells were plated at a density of 10^6 cells/100 mm dish and incubated at 37° C. in a humidified atmosphere containing 95% air and 5% CO2. After 10 days, conditioned medium was collected and centrifuged at 15,000 rpm for 15 min to remove dead cells. A total of 0.1 volume of 1.15% gelatin and 0.02 volume of 1M HEPES buffer (pH 8) was added. Leupeptin and pepstatin A were added to 1 μg/ml each.
(§4) Preparation of ^125 I-labelled VEGF ligand:
(§5) Recombinant human ^125 T-labelled VEGF 165 was purchased from Amersham (3,800 cpm/fmol). ^125,-labelled VEGF was diluted in DMEM supplemented with gelatin (0.15%) and HEPES buffer (20 mM) to a final concentration of 40,000 cpm/25 μl.
Preparation of SPA beads:
(§6) SPA PVT antibody-binding beads were purchased from Amersham. Each bottle of SPA beads (500 mg) was reconstituted in 25 ml of DMEM supplemented with gelatin (0.15%) and HEPES buffer (20 mM). The bottle contents were well mixed (15 min with a stir bar at room temperature).
(§7) SPA assays were performed in flat-bottom polystyrene 96 well microtitre plates.
(a) Pipette 50 μl of SPA beads to well.
(§8) (b) Pipette 25 μl of conditioned medium to well.
(§9) (d) Pipette 25 μl of ^125 J-VEGF 165 to well.
(§10) The appropriate control wells were set up to measure non-specific binding, solvent effect, etc. The assays were run in duplicate or triplicate wells. Plates were sealed and incubate at room temperature without shaking for 5 to 20 hours. Plates were then counted in a Packard TopCount microtitre plate liquid scintillation counter.
(§11) A typical assay gave 3,000 to 6,000 cpm bound. Background binding (measured in the presence of 100-fold molar excess of unlabelled VEGF 165) was typically 200 to 300 cpm bound. Compounds were tested at 30, 10, 3, 1, 0.3 and 0.1 μg/ml in DMSO. […] Half maximal binding was determined by the following equation:
(§12) s=maximal cpm bound in the absence of compound.
(§13) The IC50 values were determined graphically by the following procedure:
(§14) A graph was drawn plotting compound concentration (x-axis) versus cpm bound (y-axis).
(§15) The half maximal binding was calculated using the equation above.
(§16) A horizontal line (LINE A) was drawn which intersects the y-axis at the half maximal binding value.
(§17) A vertical line (LINE B) was drawn through the point where LINE A intersects the inhibition curve.
(§18) The point where LINE B intersects the x-axis was extrapolated from the graph to give the IC50 value.

[2] = tested on: Human Epidermoid Tumors (A431); assay type: in vivo, human tumor in BALB/c nu/nu female mice
Description: In Vivo Inhibition of Growth of Human Epidermoid Tumors (A431)
In vivo testing was performed using BALB/c nu/nu female mice (Charles River, Wilmington, Mass.). The human epidermoid carcinoma cells A-431 (American Type Culture Collection, Rockville, Md. # CRL-155) were grown in vitro and 5×10^6 cells were injected subcutaneously (SC) into mice. When tumors attained a mass of between 100 and 150 mg, the mice were randomized into treatment groups (Day Zero). Mice were treated either intraperitoneally (IP) or orally (PO) once a day on days 1 through 20 post staging with doses of either 100 or 50 mg/kg/dose in 0.2% Klucel. Tumor mass was determined every 7 days [(length×width^2)/2] for up to 42 days post staging. Relative tumor growth (mean tumor mass on day 7, 14, 21, 28, 35 and 42 divided by the mean tumor mass on day zero) was determined for each treatment group. The %T/C (Tumor/Control) was determined by dividing the relative tumor growth of the treated group by the relative tumor growth of the placebo group and multiplying by 100. Data was statistically analyzed via Student-t-test of Log Relative Tumor Growth. A p-value (p≤0.05) indicates a statistically significant reduction in Relative Tumor Growth of Treated Group, compared to Placebo Control. A compound is considered to be active if the %T/C is found to be <60% and a p-value of less than or equal to 0.05 is achieved.

[3] = tested on: corneal neovascularization; assay: Corneal Neovascularization Model; assay type: in vivo, mice; conditions: 100 mg/kg, PO, days 1-10
Description: Corneal Neovascularization Model
The sustained release preparations of angiogenic agents (ELVAX pellet) were prepared by solvent casting. […] The solvent was then evaporated, leaving the angiogenic agent in the polymeric matrix
Mice were anesthetized using a 1-1.5 ml/kg solution containing a mixture of 70% ketamine hydrochloride (100 mg/ml) and 30% xylazine (20 mg/ml). Using sterile surgical technique, an ELVAX pellet containing either basic FGF (100 ng) or VEGF (400 ng) was implanted into a previously dissected intrastromal corneal pocket 0.5 mm from the corneoscleral limbus. Following implantation the implantation site margins were reapposed and the eyes were treated with topical antibiotic ointment (bacitracin/neomycin/polymixin). On various days (between postoperative days 4 and 18) the extent of neovascularization was measured.
Neovascularization was monitored by measurements of new vessel growth within the previously avascular cornea. This parameter was obtained by measuring with calipers under microscopic magnification the length of the base of the neovascular bed at the limbus. The area of neovascularization,which is typically triangular, was calculated by dividing the product of the length of the vessel and the base length by two. Data was statistically analyzed via Student-t-test of Log Relative Reduction of Neovascularization. A p-value (p≤0.05) indicates a statistically significant reduction in neovascularization of Treated Group, compared to Placebo Control.

[4] = tested on: Human Epidermoid Tumors (A431); assay type: in vivo, human tumor in BALB/c nu/nu female mice; conditions: 100 mg/kg, PO
[5] = tested on: VEGF 165-induced vascular permeability; assay: Inhibition of Vascular Permeability Assay (Miles Assay); assay type: in vivo, BALB/c female mice; conditions: 100 mg/kg, PO
Description: Inhibition of Vascular Permeability Assay (Miles Assay) This assay was performed using BALB/c female mice (Charles River, Wilmington, Mass.). Both sides of the animals were shaved between 24 and 48 hours before the start of the assay. There were 10 animals per experimental group. […] One half hour later the animals were sacrificed by CO2 inhalation. […] Data was statistically analyzed via Student-t-test. A p-value (p≤0.05) indicates a statistically significant difference between the area of vascular permeability of the vehicle control verses the experimental group. Data was statistically analyzed via Student-t-test of Log Relative Area of Permiability. A p-value (p≤0.05) indicates a statistically significant reduction in permeability of Treated Group, compared to Placebo Control.

[6] = biological target: KDR; assay: Inhibition of Binding of VEGF 165 to KDR Receptor as Measured by SPA Assay; conditions: read-out: affinity constant for VEGF binding to the soluble KDR-Fc receptor
Target sequence in this assay (P35968 20-327 limits assumed): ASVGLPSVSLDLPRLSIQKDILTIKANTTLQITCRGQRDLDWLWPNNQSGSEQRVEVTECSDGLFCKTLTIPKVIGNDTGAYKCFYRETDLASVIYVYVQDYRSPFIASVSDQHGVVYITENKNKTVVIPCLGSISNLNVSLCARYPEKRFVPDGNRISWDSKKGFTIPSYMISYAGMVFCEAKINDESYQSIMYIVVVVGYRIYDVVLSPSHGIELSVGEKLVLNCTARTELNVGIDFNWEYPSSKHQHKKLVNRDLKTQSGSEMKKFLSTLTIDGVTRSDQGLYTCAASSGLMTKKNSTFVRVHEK
Description: as §1, §2, §3, §4, §5
Preparation of SPA beads:
as §6, §7
(a) Pipette 50 μl of SPA beads to well.
as §8, §9, §10, §11, §12, §13, §14, §15, §16, §17, §18

| IC50 [1] [µg/mL] | Compound | Inhibition of Corneal Neovascularization ([3]; Day 4) [%] | Inhibition of Corneal Neovascularization ([3]; Day 8) [%] | Inhibition of Corneal Neovascularization ([3]; Day 11) [%] | Inhibition of Corneal Neovascularization ([3]; Day 13) [%] | % T/C (Day) ([2]; 50 mg/kg, PO, day 28) [%] | further results |
| --- | --- | --- | --- | --- | --- | --- | --- |
| 2 | CCCc1c(C(=O)Nc2cc3c(cc2S(=O)(=O)O)-c2cc(S(=O)(=O)O)c(NC(=O)c4cnn(-c5ccc(Cl)cc5)c4CCC)cc2S3(=O)=O)cnn1-c1ccc(Cl)cc1 [Example 45, 3,7-Bis-{[1-(4-chlorophenyl)-5-propyl-1H-pyrazole-4-carbonyl]amino}5,5-dioxo-5H-5^6-dibenzothiophene-2,8-disulfonic acid, disodium salt] | – | – | – | – | – | % T/C (Day) ([2]; 50 mg/kg, IP, day 28): 50% |
| 0.15 | O=C(Nc1cc2c(cc1S(=O)(=O)O)-c1cc(S(=O)(=O)O)c(NC(=O)c3ccc4cc5ccccc5cc4c3)cc1S2(=O)=O)c1ccc2cc3ccccc3cc2c1 [Example 54, 3,7-Bis-(anthracen-2-ylcarbonylamino)-5,5-dioxo-5H-5^6-dibenzothiophene-2,8-disulfonic acid, disodium salt] | – | – | – | – | 38 | % T/C (Day) ([2]; 50 mg/kg, IP, day 28): 46% |
| 1 | O=C(Nc1cc2c(cc1S(=O)(=O)O)-c1cc(S(=O)(=O)O)c(NC(=O)c3ccc4c(c3)C(=O)c3ccccc3C4=O)cc1S2(=O)=O)c1ccc2c(c1)C(=O)c1ccccc1C2=O [Example 55, 3,7-Bis-[9,10-dihydro-9,10-dioxoanthracen-2-yl)carbonyl-amino]-5,5-dioxo-5H-5^6-dibenzothiophene-2,8-disulfonic acid, disodium salt] | – | – | – | – | 44 | % Control ([5]; 1 hr prior to VEGF): 77%; Lesion Area (measured area of vascular permeability) ([5]; 1 hr prior to VEGF): 71.6 mm^2; % Control ([5]; 4 hr prior to VEGF): 74%; Lesion Area (measured area of vascular permeability) ([5]; 4 hr prior to VEGF): 70.5 mm^2 |

The next lines start with the compound.

| Compound | IC50 [1] [µg/mL] | Inhibition of Corneal Neovascularization ([3]; Day 4) [%] | Inhibition of Corneal Neovascularization ([3]; Day 8) [%] | Inhibition of Corneal Neovascularization ([3]; Day 11) [%] | Inhibition of Corneal Neovascularization ([3]; Day 13) [%] | % T/C (Day) ([2]; 50 mg/kg, PO, day 28) [%] | further results |
| --- | --- | --- | --- | --- | --- | --- | --- |
| O=C(Nc1cc2sc3cc(NC(=O)c4ccc5c(c4)C(=O)c4ccccc4C5=O)c(C(=O)O)cc3c2cc1C(=O)O)c1ccc2c(c1)C(=O)c1ccccc1C2=O.[Na].[Na] [Example 4, 3,7-Bis{[(9,10-dihydro-9,10-dioxo-2-anthracenyl)carbonyl]-amino}dibenzothiophene-2,8-dicarboxylic acid, disodium] | 0.2 | 55 | 38 | 40 | 23 | – | – |
| O=C(Nc1cc2sc3cc(NC(=O)c4cc5c(s4)-c4cc(Cl)ccc4SC5)c(C(=O)O)cc3c2cc1C(=O)O)c1cc2c(s1)-c1cc(Cl)ccc1SC2 [Example 6, 3,7-Bis[(8-chloro-4H-thieno[3,2-c][1]benzothiopyran-2-carbonyl)-amino]dibenzothio-phene-2,8-dicarboxylic acid, disodium] | 0.5 | – | – | – | – | – | % T/C (Day) ([4]; day 15): 52% |
| COc1ccc(/C=C/C(=O)Nc2cc3sc4cc(NC(=O)/C=C/c5ccc(OC)cc5)c(C(=O)O)cc4c3cc2C(=O)O)cc1 [Example 12, 3,7-Bis{[3-(4-methoxyphenyl)acryloylamino]-dibenzothiophene-2,8-dicarboxylic Acid, disodium salt] | 4.9 | 41 | 41 | 34 | 8 | – | – |
| CCOP(=O)(O)c1cc2c(cc1NC(=O)c1cc3ccccc3s1)S(=O)(=O)c1cc(NC(=O)c3cc4ccccc4s3)c(P(=O)(O)OCC)cc1-2 [Example 23a, [3,7-Bis[(benzo[b]thiophene-2-carbonyl)amino-8-(ethoxyhydroxyphosphoryl)-5,5-dioxo-5H-5λ^6-dibenzothiophen-2-yl]phosphonic acid monoethyl ester, disodium salt] | 1.65 | 70 | 55 | 46 | 50 | – | – |
| CCOP(=O)(O)c1cc2c(cc1NC(=O)/C=C/c1ccc(OC)cc1)S(=O)(=O)c1cc(NC(=O)/C=C/c3ccc(OC)cc3)c(P(=O)(O)OCC)cc1-2 [Example 20, [3,7-Bis-[4-methoxyphenyl]-acryloylamino]-8-(ethoxyhydroxy-phosphoryl)-5,5-dioxo-5H-5^6-dibenzothiophen-2-yl]-phosphonic acid monoethyl ester, disodium salt] | 3.9 | 29 | 25 | 30 | 26 | – | % T/C (Day) ([4]; day 29): 39%; S/T (No. Survivors/No. Treated) ([2]; 100 mg/kg, PO, Day +28 post tumor staging): 5/5 |
| COc1ccc(/C=C/C(=O)Nc2cc3c(cc2S(=O)(=O)O)-c2cc(S(=O)(=O)O)c(NC(=O)/C=C/c4ccc(OC)c(OC)c4Cl)cc2S3(=O)=O)c(Cl)c1OC [Example 27, 3,7-Bis[3-(2-chloro-3,4-di-methoxyphenyl)-acryloylamino]-5,5-dioxo-5H-5^6-dibenzothiophene-2,8-disulfonic acid, disodium salt] | 2.33 | – | – | – | – | 51 | % Control ([5]; 4 hr prior to VEGF): 73%; Lesion Area (measured area of vascular permeability) ([5]; 4 hr prior to VEGF): 58.5 mm^2; % T/C (Day) ([2]; 100 mg/kg, PO, day 28): 30% |
| VEGF | – | – | – | – | – | – | Kd [6]: ~0.1 nM |
| COc1ccc(/C=C/C(=O)Nc2cc3c(cc2S(=O)(=O)O)-c2cc(S(=O)(=O)O)c(NC(=O)/C=C/c4ccc(OC)cc4)cc2S3(=O)=O)cc1 [Example 30, 3,7-Bis-[3-(4-methoxyphenyl)-acryloylamino]-5,5-dioxo-5H-5^6-dibenzothiophene-2,8-disulfonic acid, disodium salt] | 0.5 | – | – | – | – | 58 | % Control ([5]; 4 hr prior to VEGF): 56%; Lesion Area (measured area of vascular permeability) ([5]; 4 hr prior to VEGF): 52.9 mm^2; % T/C (Day) ([2]; 100 mg/kg, PO, day 42): 56% |
